Experimental findings from US6413995B1, “Cinnamamide derivatives and drug compositions containing the same” (Tsumura & Co., priority 1999, dated 2002) are described below.

Like-named read-outs stand apart in the source and are kept apart here.

The test system of one test is IL-10. The test can be described thus: Inhibition of IL-10 production by mouse peritoneal macrophages (ELISA). The test is classed as cell-based, mice. Particulars: Macrophage, 48 hours, read-out: Inhibitory rate (%) IL-10; for inhibition at 10 µg/mL: 10 μg/ml; for inhibition at 50 µg/mL: 50 μg/ml; for inhibition at 100 µg/mL: 100 μg/ml; for inhibition at 1 µg/mL: 1 μg/ml; for inhibition at 5 µg/mL: 5 μg/ml. As for the experimental part: (§1) C57BL/6CrSlc male mice were intraperitoneally injected with 2.0 ml of 3% Brewer tioglycolate medium. Three days later, macrophages were collected from the abdominal cavity with 5.0 ml Hank's balanced salt solution, and then equally divided into each well of a 48-well plate using RPMI 1640 medium supplemented with 10% FBS (Fetal Bovine Serum), followed by incubation in a CO2 incubator for 1 hour. After the macrophages adhered to the walls of the plate, they were incubated for 48 hours in the presence of a test compound with different concentrations. Following the incubation, the supernatant was collected from each well, assayed for IL-6, IL-10 and L-12 by ELISA to determine inhibitory rates against the production of these interleukins.
Background: ELISA stands for enzyme-linked immunosorbent assay.

In a further test the test system is IL-12. The experiment in a line: Inhibition of IL-12 production by mouse peritoneal macrophages (ELISA). The test is classed as cell-based, mice. Particulars: Macrophage, read-out: Inhibitory rate (%) IL-12; for inhibition at 10 µg/mL: 10 μg/ml; for inhibition at 50 µg/mL: 50 μg/ml; for inhibition at 100 µg/mL: 100 μg/ml; for inhibition at 1 µg/mL: 1 μg/ml; for inhibition at 5 µg/mL: 5 μg/ml; for inhibition at 10 µM: 10 μM/L. The procedure: as §1

A further test has as its system IL-6. The test can be described thus: Inhibition of IL-6 production by mouse peritoneal macrophages (ELISA). The test is classed as cell-based, mice. Conditions: Macrophage, 48 hours, read-out: Inhibitory rate (%) IL-6; for inhibition at 10 µg/mL: 10 μg/ml; for inhibition at 50 µg/mL: 50 μg/ml; for inhibition at 100 µg/mL: 100 μg/ml; for inhibition at 1 µg/mL: 1 μg/ml; for inhibition at 5 µg/mL: 5 μg/ml. As for the experimental part: as §1

Test [1] concerns Rats with Minimal Change Nephrosis. The test can be described thus: Inhibitory effects on urinary proteins in rats with minimal change nephrosis (Puromycin Aminonucleoside). Conditions: S.D. male rats, PA 50 mg/kg i.v., test drug 2 mg/kg/day from day 6 to day 11, assayed at day 11. The test is classed as in vivo. As for the experimental part: Six week old S.D. male rats were intravenously injected with Puromycin Aminonucleoside (PA; SIGMA)at a dose of 50 mg/kg so as to develop nephrosis. Six days after PA treatment, the rats were administered with a test drug at a dose of 2 mg/kg/day by day 11. Each rat was assayed for an excreted urinary protein level at day 11 to determine an inhibitory rate.

Another test addresses T1, Thromboxane A2 Synthase (Rattus norvegicus, UniProt P49430).
T1 construct: centrifuged at 1,300 rpm for 7 minutes to obtain platelet rich plasma (PRP); from tissue; host or cells: platelet rich plasma (washed platelets) from the abdominal aorta blood of Sprague-Dawley rats
T1 sequence (P49430 1-533): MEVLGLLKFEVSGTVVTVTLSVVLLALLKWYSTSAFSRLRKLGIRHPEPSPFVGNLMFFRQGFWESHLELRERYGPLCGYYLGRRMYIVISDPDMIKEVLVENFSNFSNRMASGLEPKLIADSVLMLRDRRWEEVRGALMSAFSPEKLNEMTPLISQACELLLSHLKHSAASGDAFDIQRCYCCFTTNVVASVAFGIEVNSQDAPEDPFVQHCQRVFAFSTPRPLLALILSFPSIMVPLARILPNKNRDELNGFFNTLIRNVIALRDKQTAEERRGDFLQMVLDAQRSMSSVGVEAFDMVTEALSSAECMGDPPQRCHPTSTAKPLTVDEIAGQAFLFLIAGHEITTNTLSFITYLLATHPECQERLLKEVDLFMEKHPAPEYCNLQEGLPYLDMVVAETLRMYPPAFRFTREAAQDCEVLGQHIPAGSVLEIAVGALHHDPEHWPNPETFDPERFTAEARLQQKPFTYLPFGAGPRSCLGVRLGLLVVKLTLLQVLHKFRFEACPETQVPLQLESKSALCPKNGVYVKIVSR
The test can be described thus: Inhibitory effect on thromboxane A2 synthase: TXB2 in rat platelet rich plasma. The test is classed as cell-based, rats. Particulars: 10 μmol/l, rat PRP. As for the experimental part: Eight week old Sprague-Dawley male rats were used in this example. The rats were anesthetized with pentobarbital sodium. The blood was collected from the abdominal aorta using a heparinized syringe, and centrifuged at 1,300 rpm for 7 minutes to obtain platelet rich plasma (PRP). PRP was suspended in an equivalent volume of a buffer containing 25 mmol/l Tris-HCl, 130 mmol/l sodium chloride and 0.3 mmol/l EDTA (pH 7.4)(buffer A), followed by centrifugation at 4° C., at 1,500 rpm for 5 minutes. This procedure was repeated twice, and PRP was finally suspended in a buffer containing 25 mmol/l Tris-HCl, 130 mmol/l, 0.1% glucose and 0.1% albumin (pH7.4)(buffer B).
5×10^6 cells/mm^3 PRP preparation in buffer B was divided into each well of a 96-well plate in an amount of 150 μl/well. Each test substance was prepared at a final concentration of 10 μmol/l and added to the PRP preparation in an amount of 50 μl/well. Immediately after addition of the test substance, 5 μl of an aggregation-inducing agent, type IV collagen (1 mg/ml) or arachidonic acid (50 mmol/l), was added and incubated for 10 minutes. 20 μl of an EDTA-indomethacin solution was added to the each well to stop the reaction. The supernatant was assayed for thromboxane B2 (TXB2), stable metabolite of thromboxane A2 (TXA2), using a TXB2 measurement kit (Cayman).

Setting [2] is: arachidonic acid, 10 minutes, read-out: TXB2 induced by arachidonic acid (Inhibitory rate; %).
Where [3] appears, read: type IV collagen, 10 minutes, read-out: TXB2 induced by collagen (Inhibitory rate; %).
Setting [4] is: summary of Table 3, read-out: inhibitory activity against TXA2 production mediated by collagen or arachidonate.

As for `CCOC(=O)COc1ccc(/C=C/C(=O)N(C)Cc2cccnc2)cc1` [Example 2, Ethyl [4-[(E)-2-[N-Methyl-N-(3-pyridylmethyl)carbamoyl]ethenyl]phenoxy]-acetate], the inhibition at 10 µg/mL with IL-10 turned out to be 27.8%; in the test with IL-12 (48 hours) it was 35%; with IL-6, 58.8%. The inhibition at 50 µg/mL in the test with IL-10 stood at 51.4%; in the test with IL-12 (48 hours), 63.8%; in the test with IL-6, 78.9%. In addition, the figures for the inhibition at 100 µg/mL in the test with IL-10, in the test with IL-12 (48 hours) and with IL-6 were 50%, 65.4% and 88%, respectively.

For `COC(=O)COc1ccc(/C=C/C(=O)NCc2cccnc2)cc1` [Example 7, methyl [4-[(E)-2-[N-(3-pyridylmethyl)carbamoyl]ethenyl]phenoxy]acetate], the inhibition at 1 µg/mL in the test on IL-10 was determined as 17.9%; in the test on IL-12 (48 hours), 28.4%; with IL-6, 13.5%. Further, the inhibition at 5 µg/mL was 1.3% in the test with IL-10, 40.1% in the test on IL-12 (48 hours) and 31.5% in the test with IL-6. For the same molecule, the inhibition at 10 µg/mL in the test with IL-10 was 25.4%; with IL-12 (48 hours), 52.5%; in the test with IL-6, 32.5%. Besides, the “Inhibitory rate (%) of excreted urinary protein level” value (from here on “Inhibitory rate (%)”) in test [1] is 50%.

Regarding `CCOC(=O)COc1ccc(/C=C/C(=O)NCCc2cccnc2)cc1` [Example 10], in the test with IL-10, the inhibition at 10 µg/mL came out at 29.5%, the inhibition at 50 µg/mL was 33.3% and the inhibition at 100 µg/mL amounted to 27.8%. Moreover, in the test on IL-12 (48 hours), the inhibition at 10 µg/mL was 30.3%, the inhibition at 50 µg/mL came out at 27.8% and the inhibition at 100 µg/mL amounted to 35%. Also, in the test with IL-6, the inhibition at 10 µg/mL worked out at 61.2%, the inhibition at 50 µg/mL amounted to 63.5% and the inhibition at 100 µg/mL is 61.6%. Moreover, the “Inhibitory rate (%)” value in test [1] was found to be 56%.

As for `COC(=O)COc1ccc(/C=C/C(=O)NCCc2ccccn2)cc1` [Example 16], the values for the inhibition at 1 µg/mL in the test with IL-10, in the test with IL-12 (48 hours) and in the test with IL-6 were 49.9%, 31.4% and 26.1%, respectively. Further, the inhibition at 5 µg/mL is 50.1% in the test on IL-10, 47.4% with IL-12 (48 hours) and 41.3% in the test on IL-6. In addition, the values for the inhibition at 10 µg/mL with IL-10, with IL-12 (48 hours) and in the test with IL-6 were 34.9%, 40.3% and 79%, respectively. Moreover, in test [1], the “Inhibitory rate (%)” value came out at 42%.

As to `COC(=O)COc1ccc(/C=C/C(=O)NCc2ccccn2)cc1` [Example 29], the inhibition at 10 µg/mL with IL-10 was -25.7%; in the test with IL-12 (48 hours), 37.6%; with IL-6, -9.5%.

Regarding `COC(=O)COc1ccc(/C=C/C(=O)NCCc2ccncc2)cc1` [Example 30], the inhibition at 10 µg/mL is -38.9% in the test on IL-10, 71.7% with IL-12 (48 hours) and 58.8% in the test on IL-6.

Take `O=C(O)COc1ccccc1/C=C/C(=O)NCc1cccnc1` [Example 37]: the inhibition at 10 µM on Thromboxane A2 Synthase (setting [2]) and at Thromboxane A2 Synthase (setting [3]) was 26% in each case.

`NC(=O)COc1ccc(/C=C/C(=O)NCc2cccnc2)cc1` [Example 41]: the inhibition at 10 µM on Thromboxane A2 Synthase (setting [2]) amounted to 36%; on Thromboxane A2 Synthase (setting [3]) it was 14%.

As for `O=C(/C=C/c1ccccc1OCC(=O)NO)NCc1cccnc1` [Example 53], the inhibition at 10 µM is 56% on Thromboxane A2 Synthase (setting [2]), 43% on Thromboxane A2 Synthase (setting [3]) and no less than 50% at Thromboxane A2 Synthase (setting [4]).

As to `CNC(=S)COc1ccccc1/C=C/C(=S)NCc1cccnc1` [Example 65, (E)-3-[2-[[N-(Methyl)thiocarbamoyl]methoxy]phenyl]-N-(3-pyridylmethyl)-2-propenoic Acid Thioamide], the results for the inhibition at 10 µM on Thromboxane A2 Synthase (setting [2]) and at Thromboxane A2 Synthase (setting [3]) were 23% and 12%, respectively.

`CN(Cc1cccnc1)C(=O)/C=C/c1ccc(OCC(=O)O)cc1` [Example 72]: the inhibition at 10 µM at Thromboxane A2 Synthase (setting [2]) was 61%; at Thromboxane A2 Synthase (setting [3]) it was 46%; at Thromboxane A2 Synthase (setting [4]), no less than 50%.

`O=C(O)COc1ccc(/C=C/C(=O)NCCc2ccccn2)cc1` [Example 73]: the inhibition at 10 µM at Thromboxane A2 Synthase (setting [2]) was 23%; at Thromboxane A2 Synthase (setting [3]), 47%.

Consider `O=C(/C=C/c1ccc(OC(F)(F)C(=O)O)cc1)NCc1cccnc1` [Example 74], for which the inhibition at 10 µM in the test with IL-12 (48 hours) came out at 51.1%.

`COC(=O)/C=C/c1ccc(/C=C/C(=O)NCc2cccnc2)cc1` [Example 76]: the inhibition at 10 µM in the test with IL-12 (48 hours) was 50%.

On to `COC(=O)CCc1ccc(/C=C/C(=O)NCCc2ccccn2)cc1` [Example 78], for which, in the test on IL-12 (48 hours), the inhibition at 10 µM amounted to 49.2%.

In the case of `O=C(O)CCc1ccc(/C=C/C(=O)NCCc2ccccn2)cc1` [Example 79], the inhibition at 10 µM in the test with IL-12 (48 hours) came out at 43%.

Take `COC(=O)CC(O)c1ccc(/C=C/C(=O)NCc2cccnc2)cc1` (stereo not shown) [Example 80, methyl 3-hydroxy-3-[4-[2-[N-(3-pyridylmethyl)carbamoyl]ethenyl]phenyl]propionate]: the inhibition at 10 µM in the test with IL-12 (48 hours) was found to be 52.3%.

Consider `CCOC(=O)COc1ccc(/C=C(\C#N)C(=O)NCc2cccnc2)cc1` [Example 81, Ethyl [4-[2-Cyano-2-[N-(3-pyridylmethyl)carbamoyl]ethenyl]phenoxy]acetate], for which, in the test with IL-12 (48 hours), the inhibition at 10 µM was 41%.

With `N#C/C(=C\c1ccc(OCC(=O)O)cc1)C(=O)NCc1cccnc1` [Example 82, Sodium [4-[2-Cyano-2-[N-(3-pyridylmethyl)carbamoyl]ethenyl]phenoxy]acetate], the inhibition at 10 µM in the test with IL-12 (48 h) worked out at 30.7%.

Turning to `N#C/C(=C\c1ccc(OCC(=O)O)cc1)C(=O)NCc1cccnc1` [Example 83, [4-[2-Cyano-2-[N-(3-pyridylmethyl)carbamoyl]ethenyl]phenoxy]acetic Acid], in the test on IL-12 (48 hours), the inhibition at 10 µM stood at 40.9%.

For `CN(C)C(=O)COc1ccc(/C=C(\C#N)C(=O)NCc2cccnc2)cc1` [Example 84], in the test with IL-12 (48 hours), the inhibition at 10 µM turned out to be 38.9%.

As to `CCOC(=O)COc1ccc(/C(C)=C/C(=O)NCc2cccnc2)cc1` [Example 85, Ethyl [4-[(E)-1-Methyl-2-[N-(3-Pyridylmethyl)carbamoyl]ethenyl]phenoxy]acetate], the inhibition at 10 µM with IL-12 (48 hours) is 47.4%.

With `O=C(O)CNc1ccc(/C=C/C(=O)NCc2cccnc2)cc1` [Example 88, [[4-[(E)-2-[N-(3-Pyridylmethyl)carbamoyl]ethenyl]phenyl]amino]acetic Acid], the inhibition at 10 µM in the test on IL-12 (48 hours) turned out to be 26.4%.
